Measured values published in BindingDB's records for patent US10301272 (Phenex Pharmaceuticals, 2019).

These compounds were tested against T1, Isoform 2 of Nuclear receptor ROR-gamma (RORgT) (Homo sapiens, UniProt P51449) (assay: RORgamma Gal4 Reporter Gene Assay (FRET)).
T1 sequence (P51449 whole entry): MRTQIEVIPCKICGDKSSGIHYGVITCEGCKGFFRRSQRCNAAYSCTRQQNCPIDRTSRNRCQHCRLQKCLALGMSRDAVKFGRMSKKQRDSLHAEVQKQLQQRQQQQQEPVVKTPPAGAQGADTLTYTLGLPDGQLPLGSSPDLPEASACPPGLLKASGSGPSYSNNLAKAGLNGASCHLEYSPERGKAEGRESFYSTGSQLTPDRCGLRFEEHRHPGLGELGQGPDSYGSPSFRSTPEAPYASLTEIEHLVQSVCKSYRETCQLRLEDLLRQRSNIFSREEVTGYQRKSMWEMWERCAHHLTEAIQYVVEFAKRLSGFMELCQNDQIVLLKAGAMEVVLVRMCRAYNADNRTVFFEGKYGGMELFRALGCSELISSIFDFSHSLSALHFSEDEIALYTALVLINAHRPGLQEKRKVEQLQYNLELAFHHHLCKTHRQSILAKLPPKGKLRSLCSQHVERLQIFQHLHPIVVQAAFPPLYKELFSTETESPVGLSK
Description: Determination of a ligand mediated Gal4 promoter driven transactivation to quantify ligand binding to RORγ was performed as follows: DNA encoding three different RORγ protein fragments was cloned into vector pCMV-BD (Stratagene). Expression was under control of a CMV promoter and as fusion to the DNA-binding domain of the yeast protein GAL4. Other vectors used were pFR-Luc (Stratagene) as regulated reporter plasmid. pFR-Luc contains a synthetic promoter with five tandem repeats of the yeast GAL4 binding sites that control expression of the Photinus pyralis (American firefly) luciferase gene. In order to improve experimental accuracy the plasmid pRL-CMV was cotransfected. pRL-CMV contains the constitutive CMV promoter, controlling the expression of the Renilla reniformis luciferase. […] The medium is supplemented with 10% fetal bovine serum, 0.1 mM nonessential amino acids, 1 mM sodium pyruvate, 1% Glutamax and 100 units Penicilin/[…] per mL at 37° C. in 5% CO2.For the assay, […] cells were plated per well in 96 well plates in 100 μL per well, incubated over night at 37° C. in 5% CO2. […] About 4 h after addition of the transfection solution, fresh Minimal Essential Medium (MEM, same composition as used for plating cells, but without serum) was added.

Row | SMILES | IC50 [nM]
1 | CC(C)(C)NS(=O)(=O)c1ccc(-c2sc(C(=O)NC3CCOCC3)nc2CC2CCCCC2)cc1C(F)(F)F [US10301272, Example 9] | 63.1
2 | CC(C)(O)CNC(=O)c1nc(CC2CCC2)c(-c2ccc(S(=O)(=O)NC(C)(C)C)c(Cl)c2OC(F)F)s1 [US10301272, Example 21/1] | 251
3 | CCOC(=O)c1nc(Cc2ccccc2)c(-c2ccc(S(=O)(=O)NC(C)(C)C)c3ccccc23)s1 [US10301272, Example 202] | 63.1
